Test results reported in patent publication US10111874B2, “Combination therapies for treatment of cancer” (Araxes Pharma LLC, priority 2014, dated 2018).

Molecular target: T1, KRAS G12C 1-169, his-tagged protein, GDP-loaded (Homo sapiens, UniProt P01116, G12C)
T1 construct: KRAS G12C 1-169, his-tagged protein, GDP-loaded
Assay: Biochemical assay: covalent binding to KRAS G12C analyzed by mass spectrometry; also: test concentration or dose not given here

[1] = compounds 48-246, measured at 2 h
[2] = compounds 247-342, measured at 30 min

T1 sequence (P01116 1-169 isoform P01116-2 G12C): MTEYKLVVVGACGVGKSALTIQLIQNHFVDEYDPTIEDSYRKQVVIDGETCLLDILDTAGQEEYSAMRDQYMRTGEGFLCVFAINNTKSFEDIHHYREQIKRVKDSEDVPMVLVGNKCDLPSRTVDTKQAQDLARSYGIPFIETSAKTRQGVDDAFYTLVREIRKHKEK

| SMILES | Binding % [2] | further results |
| --- | --- | --- |
| C=CC(=O)N1CCN(c2ncnc3cc(-c4c(OC)ccc5[nH]ncc45)c(Cl)cc23)CC1 [Compound I-244, 1-(4-(6-chloro-7-(5-methoxy-1H-indazol-4-yl)quinazolin-4-yl)piperazin-1-yl)prop-2-en-1-one] | – | Binding % [1]: + (+indicates binding activity from 5% to 25%) |
| N#C/C(=C\c1cncs1)C(=O)N1CCN(c2ncnc3cc(-c4ccccc4F)c(Cl)cc23)CC1 [Compound I-245, (E)-2-(4-(6-chloro-7-(2-fluorophenyl)quinazolin-4-yl)piperazine-1-carbonyl)-3-(thiazol-5-yl)acrylonitrile] | – | Binding % [1]: + (+indicates binding activity from 5% to 25%) |
| C=CC(=O)N1CCN(c2c(C#N)cnc3c(F)c(-c4c(O)cccc4F)c(Cl)cc23)CC1 [Compound I-246, 4-(4-acryloylpiperazin-1-yl)-6-chloro-8-fluoro-7-(2-fluoro-6-hydroxyphenyl)quinoline-3-carbonitrile] | – | Binding % [1]: ++++ (++++indicates binding activity greater than 75%) |
| O=C(C#CCO)N1CCN(c2ncnc3cc(-c4ccc(F)cc4F)c(Cl)cc23)CC1 [Compound I-247, 1-(4-(6-chloro-7-(2,4-difluorophenyl)quinazolin-4-yl)piperazain-1-yl)-4-hydoxybut-2-yn-1-one] | +++ (+++indicates binding activity greater than 50% and up to 75%) | – |
| C=CC(=O)N1CCN(c2ncnc3cc(-c4cc(OC)cc5ccccc45)c(Cl)cc23)CC1 [Compound I-249, 1-(4-(6-chloro-7-(3-methoxynaphthalen-1-yl)quinazolin-4-yl)piperazin-1-yl)prop-2-en-1-one] | + (+indicates binding activity from 5% to 25%) | – |
| C=CC(=O)N1CCN(c2ncnc3cc(-c4c(O)ccc5c4CCCC5)c(Cl)cc23)CC1 [Compound I-250, 1-(4-(6-chloro-7-(2-hydroxy-5,6,7,8-tetrahydronaphthalen-1-yl)quinazolin-4-yl)piperazin-1-yl)prop-2-en-1-one] | ++ (++indicates binding activity greater than 25% and up to 50%) | – |
| C=CC(=O)N1CCN(c2ncnc3cc(-c4cc(O)cc5ccccc45)c(Cl)cc23)CC1 [Compound I-251, 1-(4-(6-chloro-7-(3-hydroxynaphthalen-1-yl)quinazolin-4-yl)piperazin-1-yl)prop-2-en-1-one] | ++++ (++++indicates binding activity greater than 75%) | – |
| C#CC1CN(c2ncnc3c(F)c(-c4ccccc4F)c(Cl)cc23)CCN1C(=O)C=C (stereo not drawn) [Compound I-252, 1-(4-(6-chloro-8-fluoro-7-(2-fluorophenyl)quinazolin-4-yl)-2-ethynylpiperazin-1-yl)prop-2-en-1-one] | ++++ (++++indicates binding activity greater than 75%) | – |
| C=CC(=O)N1CCN(c2nc(NCCN(C)C)nc3c(F)c(-c4c(C)ccc5[nH]ncc45)c(Cl)cc23)CC1 [Compound I-253] | ++++ (++++indicates binding activity greater than 75%) | – |
| C=CC(=O)N1CCN(c2ncnc3c(F)c(-c4c(C)c(C)cc5cn[nH]c45)c(Cl)cc23)CC1 [Compound I-255, 1-(4-(6-chloro-7-(5,6-dimethyl-1H-indazol-7-yl)-8-fluoroquinaolin-4-yl)piperazin-1-yl)prop-2-en-1-one] | +++ (+++indicates binding activity greater than 50% and up to 75%) | – |
| C=CC(=O)N1CCN(c2ncnc3c(F)c(-c4cc(O)cc5ccccc45)c(Cl)cc23)CC1 [Compound I-256, 1-(4-(6-chloro-8-fluoro-7-(3-hydroxynaphthalen-1-yl)quinazolin-4-yl)piperazin-1-yl)prop-2-en-1-one] | – | Binding % (compounds 247-342, measured at 30 min, listed as 256): +++ (+++indicates binding activity greater than 50% and up to 75%) |
| C=CC(=O)N1CCN(c2nc(NC)nc3c(F)c(-c4c(C)ccc5[nH]ncc45)c(Cl)cc23)CC1 [Compound I-257, 1-(4-(6-chloro-8-fluoro-7-(5-methyl-1H-indazol-4-yl)-2-(methylamino)quinazolin-4-yl)piperazin-1-yl)prop-2-en-1-one] | ++++ (++++indicates binding activity greater than 75%) | – |
| C=CC(=O)N1CCN(c2cnnc3cc(-c4c(O)ccc5ccccc45)c(Cl)cc23)CC1 [Compound I-258, 1-(4-(6-chloro-7-(2-hydroxynaphthalen-1-yl)cinnolin-4-yl)piperazin-1-yl)prop-2-en-1-one] | ++ (++indicates binding activity greater than 25% and up to 50%) | – |
| Cc1coc(/C=C(\C#N)C(=O)N2CCN(c3ncnc4cc(-c5ccccc5F)c(Cl)cc34)CC2)n1 [Compound I-259, (E)-2-(4-(6-chloro-7-(2-fluorophenyl)quinazolin-4-yl)piperazine-1-carbonyl)-3-(4-methyloxazol-2-yl)acrylonitrile] | +++ (+++indicates binding activity greater than 50% and up to 75%) | – |
| C=CC(=O)N1CCN(c2c(C#N)cnc3cc(-c4c(O)ccc5ccccc45)c(Cl)cc23)CC1 [Compound I-260, 4-(4-acryloylpiperazin-1-yl)-6-chloro-7-(2-hydroxynaphthalen-1-yl)quinoline-3-carbonitrile] | ++ (++indicates binding activity greater than 25% and up to 50%) | – |
| CC(C)(/C=C(\C#N)C(=O)N1CCN(c2ncnc3cc(-c4ccccc4F)c(Cl)cc23)CC1)CO [Compound I-261, (E)-2-(4-(6-chloro-7-(2-fluorophenyl)quinazolin-4-yl)piperazine-1-carbonyl)-5-hydroxy-4,4-dimethylpent-2-enenitrile] | + (+indicates binding activity from 5% to 25%) | – |
| N#C/C=C\C(=O)N1CCN(c2ncnc3cc(-c4ccc(F)cc4F)c(Cl)cc23)CC1 [Compound I-263, (Z)-4-(4-(6-chloro-7-(2,4-difluorophenyl)quinaozlin-4-yl)piperazin-1-yl)-4-oxobut-2-enenitrile] | + (+indicates binding activity from 5% to 25%) | – |
| C=CC(=O)N1CCN(c2ncnc3cc(-c4cc(Cl)cc5cn[nH]c45)c(Cl)cc23)CC1 [Compound I-264, 1-(4-(6-chloro-7-(5-chloro-1H-indazol-7-yl)quinazolin-4-yl)piperazin-1-yl)prop-2-en-1-one] | ++ (++indicates binding activity greater than 25% and up to 50%) | – |
| C=CC(=O)N1CCN(c2ncnc3cc(-c4c(O)cccc4C#N)c(Cl)cc23)CC1 [Compound I-265, 2-(4-(4-acryloylpiperazin-1-yl)-6-chloroquinazolin-7-yl)-3-hydroxybenzonitrile] | + (+indicates binding activity from 5% to 25%) | – |
| C=CC(=O)N1CCN(c2ncnc3cc(-c4c(Cl)ccc5[nH]ncc45)c(Cl)cc23)CC1 [Compound I-266, 1-(4-(6-chloro-7-(5-chloro-1H-indazol-4-yl)quinazolin-4-yl)piperazin-1-yl)prop-2-en-1-one] | +++ (+++indicates binding activity greater than 50% and up to 75%) | – |
| C=CC(=O)N1CCN(c2ncnc3cc(-c4cc(C(C)(C)O)ccc4F)c(Cl)cc23)CC1 [Compound I-267, 1-(4-(6-chloro-7-(2-fluoro-5-(2-hydroxypropan-2-yl)phenyl)quinazolin-4-yl)piperazin-1-yl)prop-2-en-1-one] | + (+indicates binding activity from 5% to 25%) | – |
| C=CC(=O)N1CCN(c2ncnc3cc(-c4c(C)ccc5cn[nH]c45)c(Cl)cc23)CC1 [Compound I-268, 1-(4-(6-chloro-7-(6-methyl-1H-indazol-7-yl)quinazolin-4-yl)piperazin-1-yl)prop-2-en-1-one] | +++ (+++indicates binding activity greater than 50% and up to 75%) | – |
| C=CC(=O)N1CCN(c2c(C#N)cnc3c(F)c(-c4c(O)ccc5ccccc45)c(Cl)cc23)CC1 [Compound I-269, 4-(4-acryloylpiperazin-1-yl)-6-chloro-8-fluoro-7-(2-hydroxynaphthalen-1-yl)quinoline-3-carbonitrile] | +++ (+++indicates binding activity greater than 50% and up to 75%) | – |
| C=CC(=O)N1CCN(c2c(C#N)cnc3cc(-c4c(C)ccc5[nH]ncc45)c(Cl)cc23)CC1 [Compound I-270, 4-(4-acryloylpiperazin-1-yl)-6-chloro-7-(5-methyl-1H-indazol-4-yl)quinoline-3-carbonitrile] | +++ (+++indicates binding activity greater than 50% and up to 75%) | – |
| C=CC(=O)N1CCN(c2ncnc3c(F)c(-c4ccccc4F)c(C(F)(F)F)cc23)CC1 [Compound I-271] | +++ (+++indicates binding activity greater than 50% and up to 75%) | – |
| C=CC(=O)N1CCN(c2ncnc3c(F)c(-c4c(O)cccc4F)c(C(F)(F)F)cc23)CC1 [Compound I-273, 1-(4-(8-fluoro-7-(2-dluoro-6-hydroxyphenyl)-6-(trifluoromethyl)quinaozlin-4-yl)piperazin-1-yl)prop-2-en-1-one] | ++++ (++++indicates binding activity greater than 75%) | – |
| C=CC(=O)N1CCN(c2ncnc3c(F)c(-c4c(C)ccc5cn[nH]c45)c(Cl)cc23)CC1 [Compound I-274, 1-(4-(6-chloro-8-fluoro-7-(6-methyl-1H-indazol-7-yl)quinazolin-4-yl)piperazin-1-yl)prop-2-en-1-one] | ++++ (++++indicates binding activity greater than 75%) | – |
| C=CC(=O)N1CCN(c2ncnc3c(F)c(-c4ccc(F)cc4C(F)(F)F)c(Cl)cc23)CC1 [Compound I-275, 1-(4-(6-chloro-8-fluoro-7-(4-fluoro-2-(trifluoromethyl)phenyl)quinazolin-4-yl)piperazin-1-yl)prop-2-en-1-one] | ++ (++indicates binding activity greater than 25% and up to 50%) | – |
| C=CC(=O)N1CCN(c2ncnc3cc(-c4cccc(-c5ccn[nH]5)c4)c(Cl)cc23)CC1 [Compound I-276, 1-(4-(7-(3-(1H-pyrazol-5-yl)phenyl)-6-chloroquinazolin-4-yl)piperazin-1-yl)prop-2-en-1-one] | + (+indicates binding activity from 5% to 25%) | – |
| C=CC(=O)N1CCN(c2ncnc3c(F)c(-c4c(F)ccc(F)c4O)c(Cl)cc23)CC1 [Compound I-277, 1-(4-(6-chloro-7-(3,6-ddifluoro-2-hydroxyphenyl)-8-fluoroquinazolin-4-yl)piperazin-1-yl)prop-2-en-1-one] | + (+indicates binding activity from 5% to 25%) | – |
